# Where two headings read alike, the source gives them in different places.
# What was measured:
# HeLa cells = test: cells; type: cell-based; conditions: Homo sapiens, HeLa, HeLa, read-out: CellCycle G2/M
# DLD-1 = test: cells; type: cell-based; conditions: Homo sapiens
# hp70S6K1 (RPS6KB1) = target: T1, hp70S6K1 (RPS6KB1) (Homo sapiens, UniProt P23443); test: Cerep LANCE kinase assay hp70S6K1 (S1 assay 31); type: biochemical; conditions: read-out: p70S6K1
# T1 construct: purchased Cerep (LANCE kinase assay platform, contract assay)
# T1 sequence (P23443 whole entry): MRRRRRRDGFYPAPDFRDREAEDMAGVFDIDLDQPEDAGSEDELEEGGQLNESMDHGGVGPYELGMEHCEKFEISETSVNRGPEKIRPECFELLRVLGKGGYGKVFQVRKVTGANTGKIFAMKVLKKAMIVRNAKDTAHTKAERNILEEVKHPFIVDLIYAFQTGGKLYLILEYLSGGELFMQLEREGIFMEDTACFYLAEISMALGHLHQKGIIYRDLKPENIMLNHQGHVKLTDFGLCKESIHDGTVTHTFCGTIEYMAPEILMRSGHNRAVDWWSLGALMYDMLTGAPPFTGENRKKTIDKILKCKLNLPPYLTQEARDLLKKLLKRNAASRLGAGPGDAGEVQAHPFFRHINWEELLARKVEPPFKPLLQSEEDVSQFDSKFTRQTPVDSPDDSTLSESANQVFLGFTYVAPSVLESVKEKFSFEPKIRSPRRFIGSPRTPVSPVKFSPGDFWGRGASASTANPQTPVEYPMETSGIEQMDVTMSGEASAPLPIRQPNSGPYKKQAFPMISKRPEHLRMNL
# HCT116 = test: cells; type: cell-based; conditions: Homo sapiens
# hJAK2 = target: T2, hJAK2 (Homo sapiens, UniProt O60674); test: Cerep LANCE kinase assay hJAK2 (S1 assay 33); type: biochemical; conditions: read-out: JAK2
# T2 construct: purchased Cerep (LANCE kinase assay platform, contract assay)
# T2 sequence (O60674 whole entry): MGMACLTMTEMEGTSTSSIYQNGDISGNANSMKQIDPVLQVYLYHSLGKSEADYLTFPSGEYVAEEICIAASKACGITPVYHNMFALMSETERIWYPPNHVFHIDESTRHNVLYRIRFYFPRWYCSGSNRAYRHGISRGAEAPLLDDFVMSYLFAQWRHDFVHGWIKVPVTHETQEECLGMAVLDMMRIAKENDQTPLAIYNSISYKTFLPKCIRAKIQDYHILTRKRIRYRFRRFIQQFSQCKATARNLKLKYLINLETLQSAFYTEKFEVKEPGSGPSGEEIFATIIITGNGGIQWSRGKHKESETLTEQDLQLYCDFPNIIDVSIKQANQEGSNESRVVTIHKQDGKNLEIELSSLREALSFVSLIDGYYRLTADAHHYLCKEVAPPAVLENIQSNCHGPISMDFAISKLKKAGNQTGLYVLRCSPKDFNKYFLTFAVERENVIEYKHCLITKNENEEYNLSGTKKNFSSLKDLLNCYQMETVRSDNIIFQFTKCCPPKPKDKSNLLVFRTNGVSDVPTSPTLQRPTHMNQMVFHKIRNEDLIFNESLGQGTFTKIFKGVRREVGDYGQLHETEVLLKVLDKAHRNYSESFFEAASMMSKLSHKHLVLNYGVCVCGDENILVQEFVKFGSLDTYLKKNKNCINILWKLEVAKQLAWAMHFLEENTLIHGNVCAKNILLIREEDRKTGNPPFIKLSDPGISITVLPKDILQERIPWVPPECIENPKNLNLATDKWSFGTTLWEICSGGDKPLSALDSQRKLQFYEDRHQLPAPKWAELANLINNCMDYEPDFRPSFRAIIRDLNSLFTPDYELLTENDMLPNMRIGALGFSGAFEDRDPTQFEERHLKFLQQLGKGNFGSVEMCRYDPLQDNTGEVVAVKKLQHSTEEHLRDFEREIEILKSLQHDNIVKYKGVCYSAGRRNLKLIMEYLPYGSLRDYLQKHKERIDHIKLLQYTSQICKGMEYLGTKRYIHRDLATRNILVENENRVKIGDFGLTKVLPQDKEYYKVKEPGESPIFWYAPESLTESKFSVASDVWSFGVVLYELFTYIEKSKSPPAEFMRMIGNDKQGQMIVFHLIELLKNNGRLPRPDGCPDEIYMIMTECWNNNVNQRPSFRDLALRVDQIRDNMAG
# hKDR = target: T3, hKDR (Homo sapiens, UniProt P35968); test: Cerep LANCE kinase assay hKDR (S1 assay 32); type: biochemical; conditions: read-out: KDR
# T3 construct: purchased Cerep (LANCE kinase assay platform, contract assay)
# T3 sequence (P35968 20-1356): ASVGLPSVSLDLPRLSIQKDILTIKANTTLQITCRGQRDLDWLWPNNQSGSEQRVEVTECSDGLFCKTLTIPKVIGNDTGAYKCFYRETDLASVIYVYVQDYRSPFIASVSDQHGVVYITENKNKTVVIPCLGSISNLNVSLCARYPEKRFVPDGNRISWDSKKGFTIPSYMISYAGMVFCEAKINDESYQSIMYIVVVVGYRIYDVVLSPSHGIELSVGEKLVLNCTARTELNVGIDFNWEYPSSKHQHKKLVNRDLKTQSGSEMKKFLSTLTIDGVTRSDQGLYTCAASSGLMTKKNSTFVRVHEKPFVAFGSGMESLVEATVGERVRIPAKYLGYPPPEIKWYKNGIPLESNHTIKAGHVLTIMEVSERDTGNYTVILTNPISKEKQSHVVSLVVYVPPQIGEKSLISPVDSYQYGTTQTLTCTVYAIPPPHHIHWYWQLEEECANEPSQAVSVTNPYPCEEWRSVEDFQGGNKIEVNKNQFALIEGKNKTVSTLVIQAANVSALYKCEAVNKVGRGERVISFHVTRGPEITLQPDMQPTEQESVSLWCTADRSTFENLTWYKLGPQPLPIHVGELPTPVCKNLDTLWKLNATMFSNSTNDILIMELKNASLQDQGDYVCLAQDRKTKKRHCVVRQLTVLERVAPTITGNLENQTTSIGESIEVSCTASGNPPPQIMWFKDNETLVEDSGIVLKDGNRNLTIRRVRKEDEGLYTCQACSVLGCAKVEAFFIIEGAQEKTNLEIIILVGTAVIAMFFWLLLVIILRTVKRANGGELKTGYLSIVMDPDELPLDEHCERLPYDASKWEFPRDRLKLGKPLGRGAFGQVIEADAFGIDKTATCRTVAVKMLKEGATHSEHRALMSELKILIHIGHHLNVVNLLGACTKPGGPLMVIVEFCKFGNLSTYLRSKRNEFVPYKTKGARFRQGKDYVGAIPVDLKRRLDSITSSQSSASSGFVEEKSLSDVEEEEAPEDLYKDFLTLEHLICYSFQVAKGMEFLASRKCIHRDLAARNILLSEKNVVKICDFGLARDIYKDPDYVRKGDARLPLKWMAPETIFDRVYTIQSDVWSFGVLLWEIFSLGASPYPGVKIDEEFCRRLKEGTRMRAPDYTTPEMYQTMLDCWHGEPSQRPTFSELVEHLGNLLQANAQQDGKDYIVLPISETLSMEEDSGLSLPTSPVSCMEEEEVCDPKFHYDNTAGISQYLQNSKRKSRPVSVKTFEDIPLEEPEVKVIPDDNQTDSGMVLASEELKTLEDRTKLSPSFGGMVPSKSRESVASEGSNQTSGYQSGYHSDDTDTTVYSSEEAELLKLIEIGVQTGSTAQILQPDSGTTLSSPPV
# [1] = system: endothelial tube formation in co-cultures of ECFCs and ADSCs treated with VEGF; test: cells; type: cell-based, human
# SNU-C1 = test: cells; type: cell-based; conditions: Homo sapiens
# SW480 = test: cells; type: cell-based; conditions: Homo sapiens
# HT-29 = test: cells; type: cell-based
# [2] = system: HCT116 cells treated with a GSK3β inhibitor; test: cells; type: cell-based; conditions: Homo sapiens
# INS-1E cells = test: cells; type: cell-based, rat
# RKO = test: cells; type: cell-based
# hGSK3b = target: T4, hGSK3b (Homo sapiens, UniProt P49841); test: Cerep LANCE kinase assay hGSK3b (S1 assay 34); type: biochemical; conditions: read-out: GSK3b
# T4 construct: purchased Cerep (LANCE kinase assay platform, contract assay)
# T4 sequence (P49841 whole entry): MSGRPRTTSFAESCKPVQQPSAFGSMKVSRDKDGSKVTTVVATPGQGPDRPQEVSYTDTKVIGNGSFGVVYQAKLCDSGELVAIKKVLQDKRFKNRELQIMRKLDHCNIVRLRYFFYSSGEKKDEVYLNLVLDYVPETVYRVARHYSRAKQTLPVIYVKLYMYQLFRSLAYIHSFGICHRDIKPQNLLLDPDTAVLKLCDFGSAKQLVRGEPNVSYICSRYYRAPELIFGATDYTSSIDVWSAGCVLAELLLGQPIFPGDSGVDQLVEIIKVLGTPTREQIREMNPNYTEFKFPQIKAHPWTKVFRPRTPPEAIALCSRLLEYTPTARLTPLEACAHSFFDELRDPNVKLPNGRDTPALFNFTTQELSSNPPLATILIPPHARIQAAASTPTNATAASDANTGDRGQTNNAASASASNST
# hFLT3 = target: T5, hFLT3 (Homo sapiens, UniProt P36888); test: Cerep LANCE kinase assay hFLT3 (S1 assay 35); type: biochemical; conditions: read-out: FLT3
# T5 construct: purchased Cerep (LANCE kinase assay platform, contract assay)
# T5 sequence (P36888 27-993): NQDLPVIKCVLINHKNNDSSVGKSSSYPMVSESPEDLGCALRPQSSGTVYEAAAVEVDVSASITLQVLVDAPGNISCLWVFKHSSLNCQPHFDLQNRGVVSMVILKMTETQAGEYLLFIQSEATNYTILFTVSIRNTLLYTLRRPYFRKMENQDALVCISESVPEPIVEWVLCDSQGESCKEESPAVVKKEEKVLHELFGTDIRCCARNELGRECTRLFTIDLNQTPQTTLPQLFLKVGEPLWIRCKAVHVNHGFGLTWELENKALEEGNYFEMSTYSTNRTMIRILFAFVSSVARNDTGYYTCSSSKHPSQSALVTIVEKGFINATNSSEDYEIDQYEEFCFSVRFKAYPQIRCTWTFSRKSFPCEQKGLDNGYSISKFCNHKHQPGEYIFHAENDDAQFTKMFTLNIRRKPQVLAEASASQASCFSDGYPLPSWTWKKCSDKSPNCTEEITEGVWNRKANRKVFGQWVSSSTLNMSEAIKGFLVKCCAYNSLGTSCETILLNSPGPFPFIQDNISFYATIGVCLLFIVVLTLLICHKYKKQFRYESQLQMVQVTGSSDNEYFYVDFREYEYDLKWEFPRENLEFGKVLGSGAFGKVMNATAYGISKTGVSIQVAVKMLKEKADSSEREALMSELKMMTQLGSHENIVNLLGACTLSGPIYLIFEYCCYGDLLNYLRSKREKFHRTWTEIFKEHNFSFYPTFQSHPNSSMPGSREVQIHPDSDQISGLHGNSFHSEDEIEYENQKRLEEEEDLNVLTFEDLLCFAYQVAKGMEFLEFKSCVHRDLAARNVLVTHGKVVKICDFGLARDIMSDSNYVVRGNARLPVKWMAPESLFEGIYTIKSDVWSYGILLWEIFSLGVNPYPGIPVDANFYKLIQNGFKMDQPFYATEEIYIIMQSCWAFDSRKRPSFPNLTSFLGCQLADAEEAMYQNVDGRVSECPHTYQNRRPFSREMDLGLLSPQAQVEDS
# Colo320 = test: cells; type: cell-based; conditions: Homo sapiens
# [3] = system: nuclear β-catenin in C2C12 cells; test: cells; type: cell-based
# NCI-H716 cells = test: cells; type: cell-based, Human
# [4] = COLO 320, read-out: Basal_Viability ATP Colo 320
# [5] = DLD-1, read-out: Basal_Viability ATP DLD-1
# [6] = HCT-116, read-out: Basal_Viability ATP HCT116
# [7] = Homo sapiens, read-out: Anti-Angiogenesis
# [8] = SNU-C1, read-out: Basal_Viability ATP SNU-C1
# [9] = SW480, read-out: Basal_Viability ATP SW480
# [10] = Homo sapiens, HT-29, read-out: Basal_Viability ATP HT-29
# [11] = HCT-116, read-out: GSK3b inh pretreated_Viability ATP HCT116
# [12] = Rattus norvegicus, INS-1E, read-out: Insulin Secretion
# [13] = Homo sapiens, RKO, read-out: Basal_Viability ATP RKO
# [14] = Mus musculus, C2C12, read-out: Wnt Pathway
# [15] = Homo sapiens, NCI-H716, read-out: GLP 1 Secretion
SMILES,IC50 (Colo320; [4]) [µM],EC50 (HeLa cells) [µM],IC50 (DLD-1; [5]) [µM],IC50 (hp70S6K1 (RPS6KB1); kinase assay) [µM],IC50 (HCT116; [6]) [µM],IC50 (hJAK2; kinase assay) [µM],IC50 (hKDR; kinase assay) [µM],"IC50 [1, 7] [µM]",IC50 (SNU-C1; [8]) [µM],IC50 (SW480; [9]) [µM],IC50 (HT-29; [10]) [µM],"IC50 [2, 11] [µM]",EC50 (INS-1E cells; [12]) [µM],IC50 (RKO; [13]) [µM],IC50 (hGSK3b; kinase assay) [µM],IC50 (hFLT3; kinase assay) [µM],"EC50 [3, 14] [µM]",EC50 (NCI-H716 cells; [15]) [µM],other results
COc1cccc2c1C(=O)c1c(O)c3c(c(O)c1C2=O)C[C@@](O)(C(C)=O)C[C@@H]3O[C@H]1C[C@H](N)[C@H](O)[C@H](C)O1 [Daunorubicin],9.25,–,–,–,–,–,–,–,–,–,–,–,–,–,–,–,–,–,"EC50 (HeLa cells; IC50 / EC50): 0.0465 µM; IC50 (DLD-1; DLD-1, basal, read-out: Basal_Viability ATP DLD-1): 0.188 µM; IC50 (hp70S6K1 (RPS6KB1)): > 20 µM; IC50 (HCT116; HCT-116, basal, read-out: Basal_Viability ATP HCT116): 0.0509 µM; IC50 (hJAK2): > 20 µM; IC50 (hKDR): > 20 µM; IC50 ([1]; Homo sapiens, IC50 / EC50; endothelial tube area, ADSC/ECFC co-culture; read-out: Anti-Angiogenesis): > 10 µM; IC50 (SNU-C1; SNU-C1, basal, read-out: Basal_Viability ATP SNU-C1): 0.338 µM; IC50 (SW480; SW480, basal, read-out: Basal_Viability ATP SW480): 1.47 µM; IC50 (HT-29; Homo sapiens, HT-29; read-out: Basal_Viability ATP HT-29): 0.648 µM; IC50 ([2]; HCT-116, GSK3b inhibitor pretreated, read-out: GSK3b inh pretreated_Viability ATP HCT116): 0.0554 µM; EC50 (INS-1E cells; Rattus norvegicus; IC50 / EC50; INS-1E; read-out: Insulin Secretion): > 10 µM; IC50 (RKO; Homo sapiens, RKO; read-out: Basal_Viability ATP RKO): 0.118 µM; IC50 (hGSK3b): > 20 µM; IC50 (hFLT3): > 20 µM; EC50 ([3]; Mus musculus, C2C12, IC50 / EC50; C2C12 beta-catenin translocation; read-out: Wnt Pathway): 0.0061 µM; EC50 (NCI-H716 cells; Homo sapiens; IC50 / EC50; NCI-H716; read-out: GLP 1 Secretion): > 10 µM"
Oc1c(I)cc(I)c2cccnc12 [Diiodohydroxyquinoline],0.0213,> 10,0.0178,> 20,0.041,> 20,> 20,2.39,0.0387,0.0036,0.705,0.0667,> 10,0.0227,> 20,> 20,> 10,> 10,–
O=c1c(-c2ccccc2)c1-c1ccccc1 [Diphenylcyclopropenone],3.1,> 10,4.21,> 20,> 20,> 20,> 20,3.84,> 20,> 20,> 20,7.71,> 10,> 20,> 20,> 20,3.62,> 10,–
COC(=O)Nc1nc2ccc(Sc3ccccc3)cc2[nH]1 [Fenbendazole],–,–,–,> 20,–,> 20,> 20,–,–,–,–,–,–,–,> 20,> 20,–,–,"EC50 (HeLa cells; S2 Table, 20 = no response at highest concentration): 0.195 µM; IC50 (DLD-1; DLD-1, basal, DLD-1, read-out: Basal_Viability ATP DLD-1): 0.0673 µM; IC50 (HCT116; HCT-116, basal, HCT116, read-out: Basal_Viability ATP HCT116): 0.001 µM; IC50 ([1]; Homo sapiens; read-out: Anti-Angiogenesis): 0.207 µM; IC50 (SNU-C1; SNU-C1, basal, SNU-C1, read-out: Basal_Viability ATP SNU-C1): > 20 µM; IC50 (SW480; SW480, basal, SW480, read-out: Basal_Viability ATP SW480): > 20 µM; IC50 (HT-29; Homo sapiens; basal; HT-29; read-out: Basal_Viability ATP HT-29): > 20 µM; IC50 ([2]; HCT-116, HCT116 pretreated with GSK3b inhibitor, read-out: GSK3b inh pretreated_Viability ATP HCT116): 0.003 µM; EC50 (INS-1E cells; Rattus norvegicus, INS-1E; read-out: Insulin Secretion): > 10 µM; IC50 (RKO; Homo sapiens; basal; RKO; read-out: Basal_Viability ATP RKO): 0.001 µM; IC50 (Colo320; basal, Colo 320, read-out: Basal_Viability ATP Colo 320): > 20 µM; EC50 ([3]; Mus musculus, C2C12; read-out: Wnt Pathway): 0.438 µM; EC50 (NCI-H716 cells; Homo sapiens, NCI-H716; read-out: GLP 1 Secretion): > 20 µM"
O=c1[nH]c(=O)n([C@H]2C[C@H](O)[C@@H](CO)O2)cc1F [Floxuridine],> 20,> 10,0.001,> 20,0.001,> 20,> 20,0.0216,> 20,> 20,> 20,0.001,> 10,0.001,> 20,> 20,> 10,> 10,–
Cc1cc(O)c2c3c4c(cc(O)c13)C(C)(C)C(=O)c1c(O)cc(O)c(c1-4)C2=O [Heliomycin],0.082,> 10,0.0709,> 20,0.0775,> 20,> 20,0.101,0.332,0.058,3.01,0.0573,> 10,0.0754,6.9,1.97,1.07,> 10,–

# From publication PMC4503722, “Novel Phenotypic Outcomes Identified for a Public Collection of Approved Drugs from a Publicly Accessible Panel of Assays” (PLoS ONE, 2015)
